The series concerns cornea. In words: Examination of eyes for thermal damage after PTB (tissue shrinkage, deformation). Details: species or system rabbit. The note with it: RB PTB. An excerpt:
Post-treatment, the eyes were examined for the presence of thermal damage. Tissue shrinkage and deformation around the wound site were taken as signs of thermal damage. Thermal damage to the cornea was not observed at the lowest irradiance tested (1.27 W/cm2). […] Thermal effects produced using high irradiances may produce collagen contraction resulting in distortion of the patient's vision.

In the case of `O=C([O-])c1c(Cl)c(Cl)c(Cl)c(Cl)c1-c1c2cc(I)c(=O)c(I)c-2oc2c(I)c([O-])c(I)cc12.[Na+].[Na+]` [Rose Bengal], the “thermal damage to the cornea” value is listed as “occasionally” (2.55 W/cm2), “could be observed” (762 to 1524 J/cm2 at 3.82 W/cm2) and “not observed” (lowest irradiance 1.27 W/cm2).

These data come from patent publication US8215314B2, “Photochemical tissue bonding” (The General Hospital Corporation, priority 2000, dated 2012).
